# Target: T1, recombinant autotaxin (Homo sapiens, UniProt Q13822)
# T1 construct: made in house; host or cells: Hi5 insect cells (baculovirus)
# Test: Autotaxin assay (Amplex Red, LPC substrate)
# Format: biochemical
# Conditions: 75 μM LPC, Amplex Red fluorescence, ten 1:3 dilutions starting at 30 μM
# Protocol: Autotaxin activity is measured indirectly by means of Amplex Red Reagent. In this course, Amplex Red is measured as fluorogenic indicator for generated H2O2. Autotaxin converts substrate lysophosphatidylcholine (LPC) to phosphocholine and lysophosphatidylic acid (LPA). After the conversion phosphocholine is reacted with alkaline phosphatase to obtain inorganic phosphate and choline. During the next step choline is oxidized with choline oxidase to yield betaine, whereby H2O2 is generated. H2O2 reacts with Amplex Red Reagent in the presence of peroxidase (Horseradish peroxidase) in an 1:1 stochiometry and yields highly fluorescent resorufin. The generated fluorescence is measured in a reaction-dependent kinetic mode in order to enable subtraction of fluorescence signals of possible other fluorescent compounds that are not part of the reaction from total measured fluorescence.
# 1.5 μl of a standard solution or of the compounds of the invention are dissolved in 20 mM Hepes pH 7.2 with maximally 7.7% DMSO in individual concentrations. The resulting solution is pre-incubated together with 10 μl (16 ng) of highly purified recombinant autotaxin in a black 384-hole microtiter plate for 30 min at 22° C. Thereafter, the reaction is started through the addition of 5 μL-a-lysophosphatidylcholine (LPC), whereby the final concentration of LPC is 75 μM. The mixture is incubated for 90 min. at 37° C. After the incubation Amplex Red Reagent, peroxidase (Horseradish peroxidase) and choline oxidase are added. The fluorescence is immediately measured at a wavelength of 612 nm with an excitation wavelength of 485 nm in a “Tecan Ultra multimode” fluorescence reader. The activity of autotaxin is indirectly calculated via the amount of detected generated H2O2.
# For IC50 analysis, ten serial 1:3 dilutions starting at 30 μM for each compound were run in duplicates.
# IC50 values were calculated on normalized data. For normalization, control wells were added to each assay plate and the signal of uninhibited control wells was set to 100%, whereas the signal inhibited by 500 μM C14 LPA, (Avanti Polar Lipids, Cat# 857120P) was set to 0%. Curves were fitted and IC50 values calculated by the following model using proprietary analysis software: Y=Bottom+(100−Bottom)/(1+10^((LogIC50−X)*HillSlope))
# Where X is the logarithm of concentration. Y is the response; Y starts at Bottom and goes to Top with a sigmoid shape.
# Protein: Recombinant autotaxin (baculoviral Hi5 expression)
# Substrate: L-a-lysophosphatidyl choline (chicken egg); Avanti Polar Lipids #830071 P
# Standard: C14 LPA, Avanti Polar Lipids, Cat# 857120P
# Detection Reagent Amplex Red Reagent; Invitrogen #A12222; dissolved in 1.923 ml of DMSO peroxidase Type VI-A (horseradish), Sigma #P6782; dissolved in 7.45 ml of test buffer, Choline Oxidase; Sigma #C5896; dissolved in 2.47 ml test buffer
# Detection Reagent Mix: 1:100 dilution of Amplex Red Regent in test buffer
# Test buffer: 200 mM Tris-HCl, Merck, Cat # 1.08219, pH 7.9; 0.1% BSA, lipid free, Roche Cat#775835
row,SMILES,IC50
1,"O=C(NC1CC1)C1CCN(c2nccc3nc(NCc4ccccc4Cl)ncc23)CC1 [Compound 69, 1-[2-(2-Chloro-benzylamino)-pyrido[4,3-d]pyrimidin-5-yl]-piperidine-4-carboxylic acid cyclopropylamide]",< 10 µM
2,"COCCNC(=O)C1CCN(c2nccc3nc(NCc4ccccc4Cl)ncc23)CC1 [Compound 70, 1-[2-(2-Chloro-benzylamino)-pyrido[4,3-d]pyrimidin-5-yl]-piperidine-4-carboxylic acid (2-methoxy-ethyl)-amide]",< 5 µM
3,"COCCCNC(=O)C1CCN(c2nccc3nc(NCc4ccccc4Cl)ncc23)CC1 [Compound 73, 1-[2-(2-Chloro-benzylamino)-pyrido[4,3-d]pyrimidin-5-yl]-piperidine-4-carboxylic acid (3-methoxy-propyl)-amide]",< 5 µM
4,"COc1ccccc1CNc1ncc2c(N3CCC(C(=O)N4CCN(c5ccccn5)CC4)CC3)nccc2n1 [Compound 76, {1-[2-(2-Methoxy-benzylamino)-pyrido[4,3-d]pyrimidin-5-yl]-piperidin-4-yl}-(4-pyridin-2-yl-piperazin-1-yl)-methanone]",< 30 µM
5,"COc1ccccc1CNc1ncc2c(N3CCC(C(=O)Nc4cc(C)on4)CC3)nccc2n1 [Compound 77, 1-[2-(2-Methoxy-benzylamino)-pyrido[4,3-d]pyrimidin-5-yl]-piperidine-4-carboxylic acid (5-methyl-isoxazol-3-yl)-amide]",< 30 µM
6,"O=C(Nc1cccnc1)C1CCN(c2nccc3nc(NCc4ccc(Cl)cc4)ncc23)CC1 [Compound 78, 1-[2-(4-Chloro-benzylamino)-pyrido[4,3-d]pyrimidin-5-yl]-piperidine-4-carboxylic acid pyridin-3-ylamide]",< 5 µM
7,"O=C(NCc1ccco1)C1CCN(c2nccc3nc(NCc4ccc(Cl)cc4)ncc23)CC1 [Compound 79, 1-[2-(4-Chloro-benzylamino)-pyrido[4,3-d]pyrimidin-5-yl]-piperidine-4-carboxylic acid (furan-2-ylmethyl)-amide]",< 30 µM
8,"O=C(C1CCN(c2nccc3nc(NCc4ccc(Cl)cc4)ncc23)CC1)N1CCCC1 [Compound 80, {1-[2-(4-Chloro-benzylamino)-pyrido[4,3-d]pyrimidin-5-yl]-piperidin-4-yl}-pyrrolidin-1-yl-methanone]",< 5 µM
9,"O=C(NCc1cccnc1)C1CCCN(c2nccc3nc(NCc4ccccc4Cl)ncc23)C1 (stereo not shown) [Compound 81, 1-[2-(2-Chloro-benzylamino)-pyrido[4,3-d]pyrimidin-5-yl]-piperidine-3-carboxylic acid (pyridin-3-ylmethyl)-amide]",< 5 µM
10,"O=C(Nc1cccnc1)C1CCCN(c2nccc3nc(NCc4ccccc4Cl)ncc23)C1 (stereo not shown) [Compound 82, 1-[2-(2-Chloro-benzylamino)-pyrido[4,3-d]pyrimidin-5-yl]-piperidine-3-carboxylic acid pyridin-3-ylamide]",< 5 µM
11,"O=C(NCc1ccco1)C1CCCN(c2nccc3nc(NCc4ccccc4Cl)ncc23)C1 (stereo not shown) [Compound 83, 1-[2-(2-Chloro-benzylamino)-pyrido[4,3-d]pyrimidin-5-yl]-piperidine-3-carboxylic acid (furan-2-ylmethyl)-amide]",< 30 µM
12,"O=C(NC1CC1)C1CCCN(c2nccc3nc(NCc4ccccc4Cl)ncc23)C1 (stereo not shown) [Compound 86, 1-[2-(2-Chloro-benzylamino)-pyrido[4,3-d]pyrimidin-5-yl]-piperidine-3-carboxylic acid cyclopropylamide]",< 5 µM
13,"CCOCCCNC(=O)C1CCCN(c2nccc3nc(NCc4ccccc4Cl)ncc23)C1 (stereo not shown) [Compound 88, 1-[2-(2-Chloro-benzylamino)-pyrido[4,3-d]pyrimidin-5-yl]-piperidine-3-carboxylic acid (3-ethoxy-propyl)-amide]",< 10 µM
14,"CCOC(=O)CCNC(=O)C1CCCN(c2nccc3nc(NCc4ccccc4Cl)ncc23)C1 (stereo not shown) [Compound 92, 3-({1-[2-(2-Chloro-benzylamino)-pyrido[4,3-d]pyrimidin-5-yl]-piperidine-3-carbonyl}-amino)-propionic acid ethyl ester]",< 10 µM
15,"CCN(CC)CCNC(=O)C1CCN(c2nccc3nc(NCc4ccccc4Cl)ncc23)CC1 [Compound 96, 1-[2-(2-Chloro-benzylamino)-pyrido[4,3-d]pyrimidin-5-yl]-piperidine-4-carboxylic acid (2-diethylamino-ethyl)-amide]",< 5 µM

# The next lines start with the values.
row,IC50,SMILES
1,< 30 µM,"C=CCNC(=O)C1CCN(c2nccc3nc(NCc4ccccc4Cl)ncc23)CC1 [Compound 71, 1-[2-(2-Chloro-benzylamino)-pyrido[4,3-d]pyrimidin-5-yl]-piperidine-4-carboxylic acid allylamide]"
2,< 5 µM,"CCN1CCN(C(=O)C2CCN(c3nccc4nc(NCc5ccccc5Cl)ncc34)CC2)CC1 [Compound 72, {1-[2-(2-Chloro-benzylamino)-pyrido[4,3-d]pyrimidin-5-yl]-piperidin-4-yl}-(4-ethyl-piperazin-1-yl)-methanone]"
3,< 30 µM,"COc1ccccc1CNc1ncc2c(N3CCC(C(=O)NCc4ccco4)CC3)nccc2n1 [Compound 74, 1-[2-(2-Methoxy-benzylamino)-pyrido[4,3-d]pyrimidin-5-yl]-piperidine-4-carboxylic acid (furan-2-ylmethyl)-amide]"
4,< 30 µM,"COCCNC(=O)C1CCN(c2nccc3nc(NCc4ccccc4OC)ncc23)CC1 [Compound 75, 1-[2-(2-Methoxy-benzylamino)-pyrido[4,3-d]pyrimidin-5-yl]-piperidine-4-carboxylic acid (2-methoxy-ethyl)-amide]"
5,< 5 µM,"CC(C)NC(=O)C1CCCN(c2nccc3nc(NCc4ccccc4Cl)ncc23)C1 (stereo not shown) [Compound 84, 1-[2-(2-Chloro-benzylamino)-pyrido[4,3-d]pyrimidin-5-yl]-piperidine-3-carboxylic acid isopropylamide]"
6,< 30 µM,"CCCNC(=O)C1CCCN(c2nccc3nc(NCc4ccccc4Cl)ncc23)C1 (stereo not shown) [Compound 85, 1-[2-(2-Chloro-benzylamino)-pyrido[4,3-d]pyrimidin-5-yl]-piperidine-3-carboxylic acid propylamide]"
7,< 30 µM,"Cc1cc(NC(=O)C2CCCN(c3nccc4nc(NCc5ccccc5Cl)ncc34)C2)no1 (stereo not shown) [Compound 87, 1-[2-(2-Chloro-benzylamino)-pyrido[4,3-d]pyrimidin-5-yl]-piperidine-3-carboxylic acid (5-methyl-isoxazol-3-yl)-amide]"
8,< 5 µM,"CCN1CCN(C(=O)C2CCCN(c3nccc4nc(NCc5ccccc5Cl)ncc34)C2)CC1 (stereo not shown) [Compound 89, {1-[2-(2-Chloro-benzylamino)-pyrido[4,3-d]pyrimidin-5-yl]-piperidin-3-yl}-(4-ethyl-piperazin-1-yl)-methanone]"
9,< 30 µM,"COCCCNC(=O)C1CCCN(c2nccc3nc(NCc4ccccc4Cl)ncc23)C1 (stereo not shown) [Compound 90, 1-[2-(2-Chloro-benzylamino)-pyrido[4,3-d]pyrimidin-5-yl]-piperidine-3-carboxylic acid (3-methoxy-propyl)-amide]"
10,< 30 µM,"CCN(CC)C(=O)C1CCCN(c2nccc3nc(NCc4ccccc4Cl)ncc23)C1 (stereo not shown) [Compound 91, 1-[2-(2-Chloro-benzylamino)-pyrido[4,3-d]pyrimidin-5-yl]-piperidine-3-carboxylic acid diethylamide]"
11,< 30 µM,"Cc1ccc(CNc2ncc3c(N4CCCC(C(=O)Nc5cccnc5)C4)nccc3n2)cc1 (stereo not shown) [Compound 93, 1-[2-(4-Methyl-benzylamino)-pyrido[4,3-d]pyrimidin-5-yl]-piperidine-3-carboxylic acid pyridin-3-ylamide]"
12,< 10 µM,"O=C(C1CCCN(c2nccc3nc(NCc4ccc(Cl)cc4)ncc23)C1)N1CCN(c2ccccn2)CC1 (stereo not shown) [Compound 94, {1-[2-(4-Chloro-benzylamino)-pyrido[4,3-d]pyrimidin-5-yl]-piperidin-3-yl}-(4-pyridin-2-yl-piperazin-1-yl)-methanone]"
13,< 30 µM,"COc1ccc(CNc2ncc3c(N4CCCC(C(=O)N5CCN(c6ccccn6)CC5)C4)nccc3n2)cc1 (stereo not shown) [Compound 95, {1-[2-(4-Methoxy-benzylamino)-pyrido[4,3-d]pyrimidin-5-yl]-piperidin-3-yl}-(4-pyridin-2-yl-piperazin-1-yl)-methanone]"

# — patent US8530650B2, “2, 5-diamino-substituted pyrido [4, 3-D] pyrimidines as autotaxin inhibitors against cancer” (MERCK PATENT GmbH, priority 2008, dated 2013)
